Measurements from patent US20140072617A1, “METHOD FOR PREVENTING OR SLOWING DOWN THE APPEARANCE OF THE EFFECTS OF SKIN AGEING USING A TOCOPHERYL PHOSPHATE IN LIPOSOMES” (LVMH RECHERCHE, priority 2007, published 2014).

How the values were obtained:
[1] = tested on: normal human keratinocytes (NHKs); assay: Apoptosis of normal human keratinocytes after H2O2 oxidative stress (JC-1/TOTO-3 cytometry); assay type: cell-based; details: for % NHKs undergoing apoptosis: pretreated 24 h at 10 μg/ml, then 1 mM H2O2 for 3 h, nontreated H2O2 control 54.82, nontreated control 5.48
Method: The cells undergoing apoptosis (programmed cell death) are examined on normal human keratinocytes (NHKs) in culture.
The cells are pretreated or not pretreated (controls) for 24 h with the vitamin E derivatives in solution at 10 μg/ml.
The cells are subsequently subjected to oxidative stress (1 mM H2O2 for 3 h).
The proportion of cells undergoing apoptosis is determined by cytometry using the fluorescent probes JC-1 (measurement of mitochondrial transmembrane potential) and TOTO-3 (measurement of plasma membrane permeability).
The apoptotic cells are JC-1-negative (corresponding to a drop in the mitochondrial transmembrane potential) and TOTO-3-negative (corresponding to an absence of alteration of the plasma membrane).
This method has been published (Zullani et al. Cytometry part A, 2003, 54A: 100-108).

[2] = tested on: epidermal stem cells; assay: Clonogenicity test on keratinocyte colonies derived from epidermal stem cells after oxidative stress; assay type: cell-based, human; details: 1 μg/ml for 24 h, then hydrogen peroxide 15 minutes, 7 days of culture; versus stressed controls without treatment
Description: In order to study these epidermal stem cells in the basal cell layer of the epidermis, the test carried out, known as clonogenecity test, is based on the ability that the stem cells have of adhering, in vitro, to a culture support and of dividing so as to generate a large population of daughter cells grouped together in the form of colonies (Barrandon Y., Green H., Three clonal types of keratinocyte with different capacities for multiplication, […], 2302-2306 (1987), and Barrandon Y., Biologie des cellules souches épidermiques [Epidermal Stem Cell Biology], Ann. Dermatol. Venereol. Suppl. 2: 285-286, (1998)).
Analysis of the number and of the size of the colonies after culture makes it possible to characterize the epidermal stem cells.
The first step of isolating these cells consists in preparing a suspension of epidermal cells (Germain L et al., Improvement of human keratinocyte isolation and culture using thermolysin, Burns 19, 99-104 (1993)).
These cells are subsequently seeded onto feeder cells (3T3 fibroblasts), the mitotic activity of which is blocked with mitomycin. […]
After 7 days of culture, the cell colonies formed from each initial keratinocyte are coloured and counted by image analysis according to their size so as to evaluate the amount of stem cells of the initial culture. […]

## Cc1c(C)c2c(c(C)c1O)CC[C@@](C)(CCC[C@H](C)CCC[C@H](C)CCCC(C)C)O2 [alpha-tocopherol]
[1]
  % NHKs undergoing apoptosis: 58.82%

## Cc1c(C)c2c(c(C)c1OP(=O)([O-])[O-])CCC(C)(CCCC(C)CCCC(C)CCCC(C)C)O2.[Na+].[Na+] (stereo not drawn) [sodium alpha-tocopheryl phosphate]
[2]
  number of large colonies (>4 mm^2) compared with the controls: +104%

## Cc1c(C)c2c(c(C)c1OC(=O)c1cc(O)ccc1O)CCC(C)(CCCC(C)CCCC(C)CCCC(C)C)O2 (stereo not drawn) [tocopheryl gentisate]
[1]
  % NHKs undergoing apoptosis: 60.67%

## alpha-tocopheryl phosphate
[1]; 10 μg/ml 24 h, 1 mM H2O2 3 h, compared with control, vitamin E and the other derivatives
  protective effect against oxidative stress for the keratinocytes (in words): significantly greater than that observed for the control, and also than that observed for vitamin E or the other derivatives
[1]
  % NHKs undergoing apoptosis: 32.79%

## tocotrienol
[1]
  % NHKs undergoing apoptosis: 42.85%
